# Values quoted from earlier work as cited in US6649649B1, “Method of treating colonic adenomas” (Merck & Co., Inc., priority 1995, dated 2003).
# Key:
# incident colon cancer = settings: persons who regularly used aspirin compared to those who used no aspirin
# sporadic colonic polyps = settings: early sporadic polyps (67% of the polyps were <5 mm)
# [1] = system: polyps in patients with familial polyposis
smiles,measurement,setting,value
CS(=O)(=O)Nc1ccc([N+](=O)[O-])cc1OC1CCCCC1 [NS-398],analgesic effect,rat,analgesic effects
same,antiinflammatory effect,rat,antiinflammatory
same,antipyretic effect,rat,antipyretic
same,ulcerogenicity,rat,without being ulcerogenic
same,selectivity for inhibition of either PGHS-1 or PGHS-2,PGHS-1 or PGHS-2,selective PGHS-2 inhibitor
CC(=O)Oc1ccccc1C(=O)O [aspirin],selectivity for inhibition of either PGHS-1 or PGHS-2,PGHS-1 or PGHS-2,little selectivity
same,lower risk of incident colon cancer,incident colon cancer,40%
COc1ccc2c(c1)c(CC(=O)O)c(C)n2C(=O)c1ccc(Cl)cc1 [indomethacin],selectivity for inhibition of either PGHS-1 or PGHS-2,PGHS-1 or PGHS-2,little selectivity
CC1=C(CC(=O)O)c2cc(F)ccc2/C1=C\c1ccc([S+](C)[O-])cc1 (centres unmarked) [sulindac],regression of sporadic colonic polyps,sporadic colonic polyps,did not result in a regression
same,inhibition of PGHS-1 and PGHS-2,PGHS-1 or PGHS-2,inhibiting both PGHS-1 and PGHS-2
same,polyp regression,[1],results in polyp regression
